Experimental data: patent publication US10745701B2, “Methods of identifying and treating poor-prognosis cancers” (The Trustees of Princeton University, priority 2007, dated 2020)

Legend:
[1] = tested on: LM2 cells; assay: Drug uptake and retention analysis of radiolabeled paclitaxel and doxorubicin; details: for effect of MTDH on drug uptake or retention: cancer cells with modified MTDH expression (LM2 knockdown, SCP28 overexpression); for kinetics of uptake and retention: parent LM2 cells, pilot study, 50 nM [H3]-paclitaxel or 100 nM [C14]-doxorubicin
[2] = tested on: LM2 cells; assay: Chemoresistance clonogenic assay; type: cell-based, human; details: for chemoresistance on ALDH3A1 overexpression in MTDH knockdown cells: constitutive ALDH3A1 overexpression in MTDH knockdown LM2 cells; for sensitivity of LM2 cells on ALDH3A1 knockdown: inducible ALDH3A1 shRNA induced by doxycycline
Experimental: The infected cells were selected with 0.5 μg/ml puromycin or/and 0.4 mg/ml hygromycin. Double knockdown of MET and ALDH3A1 was achieved by simultaneous infection of MET and ALDH3A1 targeting viruses with different drug selection markers. MTDH, LAPTM4b, PTDSS1, SDC2, TSPYL5, and UQCRB overexpression was achieved using the retroviral expression vector pBabe-hygro. Viruses were generated and used to infect target cells as above and the infected cells were selected with 0.4 mg/ml hygromycin. For combinational overexpression of genes at 8q22, the viruses generated from the expression vector pBabe-puro containing each of the four genes were concentrated by ultracentrifugation and pooled for infection. Northern blots, qRT-PCR, and/or Western blots were performed to validate the knockdown or overexpression of target genes.
To generate an inducible knockdown of ALDH3A1, a retroviral vector expressing the Tet repressor (TetR) was constructed by cloning the TetR coding sequence from the pcDNA6/TR plasmid (Invitrogen) to pQCXIH (Clontech). LM2 cell line with stable expression of TetR was generated by transduction with retroviruses produced from pQCXIH-TetR. The cell line was then infected with retroviruses generated from the pRSMX vector^77 containing the ALDH3A1-targeting shRNA sequence. The expression of a shRNA against ALDH3A1 is under the control of the histone H1 promoter and two adjacent tetracycline operators (TetOs). The bacterial Tet repressor (TetR) is constitutively expressed from the integrated pQCXIH-TetR in this cell line and suppresses the expression of shRNA by binding to TetOs. In the presence of […] doxycycline in the media, TetR is released from the TetOs and allow the transcription of ALDH3A1 shRNA and thus the repression of ALDH3A1 expression. The pBabe-hygro vector was used to overexpress ALDH3A1.
Cancer cells with genetic modification of MTDH and/or ALDH3A1 and the vector control were seeded into a 48-well plate (10^4 cells/well). After 24 h, the cells were treated with apoptosis-inducing chemicals for the indicated time (20, 50 or 100 nM paclitaxel, EMD Biosciences, 24 h; 50, 100 or 200 μM doxorubicin, EMD Biosciences, 24 h; 40 μM cisplatin, EMD Biosciences, 2 h; 200 or 500 μM H2O2, Fisher Scientific, 2 h) or 10 mJ/cm^2 UV irradiation. After culturing in drug-free DMEM medium for another 48 h, the surviving cells were quantified by clonogenic assay with the standard procedure for long-term recovery. Briefly, an aliquot of the harvested cell population was seeded onto a 10 cm dish. Crystal violet staining was used to count the colonies after 10-day culture in DMEM medium. The colony numbers from untreated cells of the same line were used to normalize the experimental data. In the HMVEC-L co-culture assays, HMVEC-L cells were grown to confluence in the 48-well plates with supplemented EGM-2 medium (Lonza) before seeding of cancer cells. Because HMVEC-L cells could not form colonies in the DMEM medium (data not shown), the rest of the assay was performed following the standard procedure.

[3] = tested on: LM2 cells; assay: In vivo chemoresistance assay, subcutaneous LM2 xenograft tumors; design: species or system nude mice
Experimental: MTDH-knockdown or control LM2 cells (1×10^6 cells/0.1 ml in a 50:50 solution of PBS and Matrigel) were injected subcutaneously into each flank of nude mice. The mice were treated with chemotherapeutic drugs (20 mg/kg paclitaxel or 5 mg/kg doxorubicin) or the corresponding drug vehicles (Cremophor for paclitaxel and saline for doxorubicin) twice a week by intravenous delivery a week after the tumor xenografting. Six mice (12 tumors) were used for each group. Tumor growth was monitored twice a week by size measurement. Both maximum (L) and minimum (W) diameters of the tumor were measured using a slide caliper, and the tumor volume was calculated as […]LW^2/6. Tumor growth was normalized to that before drug treatment.

| Compound | effect of MTDH on drug uptake or retention [1] | kinetics of uptake and retention [1] | chemoresistance on MET knockdown ([2]; MET knockdown in LM2 cells, weaker than MTDH knockdown) | chemoresistance on ALDH3A1 overexpression in MTDH knockdown cells [2] | sensitivity of LM2 cells on ALDH3A1 knockdown [2] | tumor size relative to pre-treatment size ([3]; MTDH knockdown LM2 cells, 20 mg/kg paclitaxel intravenous twice a week, 18 days after initiation of treatment) | tumor response in MTDH knockdown tumors ([3]; MTDH knockdown LM2 cells, paclitaxel 20 mg/kg or doxorubicin 5 mg/kg twice a week) | tumor volume relative to volume before treatment ([3]; control LM2 cells, 20 mg/kg paclitaxel intravenous twice a week, 18 days after treatment) [%] | effect on tumor growth ([3]; control LM2 cells, versus drug vehicle) |
| --- | --- | --- | --- | --- | --- | --- | --- | --- | --- |
| COc1cccc2c1C(=O)c1c(O)c3c(c(O)c1C2=O)C[C@@](O)(C(=O)CO)C[C@@H]3O[C@H]1C[C@H](N)[C@H](O)[C@H](C)O1 [doxorubicin] | does not decrease drug uptake or retention | biphasic kinetics | significant reduction of chemoresistance | partially restore | more sensitive | – | – | – | – |
| CC(=O)O[C@H]1C(=O)[C@@]2(C)[C@H]([C@H](OC(=O)c3ccccc3)[C@]3(O)C[C@H](OC(=O)[C@H](O)[C@@H](NC(=O)c4ccccc4)c4ccccc4)C(C)=C1C3(C)C)[C@]1(OC(C)=O)CO[C@@H]1C[C@@H]2O [paclitaxel] | does not decrease drug uptake or retention | biphasic kinetics | – | partially restore | more sensitive | about 30% | tumor regression | 140 | significantly hampered tumor growth |
